Assay results reported in patent US20220409629A1, “BENZODIAZEPINE DERIVATIVES FOR TREATING A RESPIRATORY SYNCYTIAL VIRUS (RSV) INFECTION” (priority 2019, published 2022).

Columns and labels:
[1] = test system: RSV A2; assay: RSV plaque reduction assay; assay type: cell-based, respiratory syncytial virus (RSV); details: human respiratory syncytial virus, HepG2; Hep-G2 cells, RSV A2, mean of at least two experiments
Description: Compounds were subjected to RSV plaque reduction assays according to the following protocol.
Hep-G2 cells (ECACC, 85011430) were passaged in flasks and seeded in 24-well plates in DMEM containing antibiotics and supplemented with 10% FBS. During inoculation and subsequent incubation, cells were cultured in DMEM containing 2% FBS. 100 plaque forming unit/well of RSV (RSV A2 ECACC, 0709161v) was mixed with eight serial dilutions of compound. Subsequently, 100 μL of the virus/compound mixtures was added to confluent Hep-G2 cell monolayers. The cells and virus/compound mixtures were incubated at 37° C. in a humidified 5% CO2 incubator for 2 h prior to removal of the inoculum and addition of 1 mL of overlay (DMEM containing 2% FBS and 0.8% CMC) containing compound dilutions. The cells and were incubated at 37° C. in a humidified 5% CO2 incubator for 2 days.
Cells were washed with PBS before adding 75/25% v/v EtOH/MeOH, for 3 min. Fixative was removed and plates were washed with PBS. A pre-titrated amount of the primary antibody was added in 200 μL PBS/2% milk powder, and plates incubated for 90 min at 37° C. The plates were washed 3 times with PBS/0.05% Tween20 before addition of rabbit anti-goat horse radish peroxidase in 200 μL PBS/2% milk powder, and incubated for 1 h at 37° C. Following three wash steps with PBS/0.05% Tween20, 200 μL ready-to-use TrueBlue was added and plates were incubated at rt for 10-15 min before washing with water. After removal of water, plates were air-dried in the dark.
Plates were scanned and analysed using the Immunospot S6 Macro analyser, which is equipped with BioSpot analysis software for counting immunostained plaques (virospots). Plaque counts were used to calculate % infection relative to the mean of the plaque count in the virus control wells for RSV. The EC50 value was calculated as 50% reduction in signal, respectively, by interpolation of inhibition curves fitted with a 4-parameter nonlinear regression with a variable slope in Dotmatics. Plaque EC50 and cell toxicity CC50 values are a mean of at least two experiments and figures are rounded to whole units.

[2] = Cell cytotoxicity CC50; assay type: cell-based; details: human; mean of at least two experiments

For CC(C)Nc1ccc(-c2c(C(=O)N[C@H]3N=C(c4ccccc4)c4cccc(F)c4NC3=O)cnn2C2COC2)c(F)n1 [Example 41, N-[(3S)-9-Fluoro-2-oxo-5-phenyl-1,3-dihydro-1,4-benzodiazepin-3-yl]-5-[2-fluoro-6-(propan-2-ylamino)pyridin-3-yl]-1-(oxetan-3-yl)pyrazole-4-carboxamide], which EC50 [1] is on record?
The EC50 was 0.091 µM.

And the CC50 [2]?
Its CC50 is over 25 µM.

Which results are given for CC(C)c1ccc(-c2c(C(=O)N[C@H]3N=C(c4ccccc4)c4cccc(F)c4NC3=O)cnn2C2CCOCC2)c(F)c1 [Example 45, 5-(2-Fluoro-4-propan-2-ylphenyl)-1-(oxan-4-yl)-N-[(3S)-9-fluoro-2-oxo-5-phenyl-1,3-dihydro-1,4-benzodiazepin-3-yl]pyrazole-4-carboxamide]?
EC50 [1]: 0.038 µM; CC50 [2]: > 25 µM

Which EC50 [1] does the source give for CCc1ccc(-c2c(C(=O)N[C@H]3N=C(c4ccccc4)c4ccccc4NC3=O)cnn2C2CCOCC2)c(F)c1 [Example 46, 5-(4-Ethyl-2-fluorophenyl)-1-(oxan-4-yl)-N-[(3S)-2-oxo-5-phenyl-1,3-dihydro-1,4-benzodiazepin-3-yl]pyrazole-4-carboxamide] here?
The EC50 was 0.034 µM.

And the CC50 [2]?
Its CC50 is over 25 µM.

With CCc1ccc(-c2c(C(=O)N[C@H]3N=C(c4ccccc4)c4ccccc4NC3=O)cnn2C2CCOCC2)c(F)n1 [Example 52, 5-(6-Ethyl-2-fluoropyridin-3-yl)-1-(oxan-4-yl)-N-[(3S)-2-oxo-5-phenyl-1,3-dihydro-1,4-benzodiazepin-3-yl]pyrazole-4-carboxamide] as the molecule, how does the EC50 [1] read?
Its EC50 is 0.087 µM.

And the CC50 [2]?
The CC50 was over 25 µM.

What does the source list for CCOc1nn(CC)c(-c2ccccc2F)c1C(=O)N[C@H]1N=C(c2ccccc2)c2ccccc2NC1=O [Example 54, 3-Ethoxy-1-ethyl-5-(2-fluorophenyl)-N-[(3S)-2-oxo-5-phenyl-1,3-dihydro-1,4-benzodiazepin-3-yl]pyrazole-4-carboxamide]?
EC50 [1]: 0.051 µM; CC50 [2]: > 25 µM

For O=C(N[C@H]1N=C(c2ccccc2)c2cccc(F)c2NC1=O)c1cnn(C2CCOCC2)c1-c1ccc(NC2CC2)nc1 [Example 56, 5-[6-(Cyclopropylamino)pyridin-3-yl]-1-(oxan-4-yl)-N-[(3S)-9-fluoro-2-oxo-5-phenyl-1,3-dihydro-1,4-benzodiazepin-3-yl]pyrazole-4-carboxamide], which EC50 [1] is on record?
Its EC50 is 0.078 µM.

What about the CC50 [2] of the same molecule?
The CC50 was over 25 µM.

With CC(C)Nc1ccc(-c2c(C(=O)N[C@H]3N=C(c4ccccc4)c4cccc(F)c4NC3=O)cnn2C2CCOCC2)cn1 [Example 58, 1-(Oxan-4-yl)-5-[6-(propan-2-ylamino)pyridin-3-yl]-N-[(3S)-9-fluoro-2-oxo-5-phenyl-1,3-dihydro-1,4-benzodiazepin-3-yl]pyrazole-4-carboxamide] as the molecule, how does the EC50 [1] read?
The EC50 was 0.099 µM.

What about the CC50 [2] of the same molecule?
The CC50 was over 25 µM.

For CCc1ccc(-c2c(C(=O)N[C@H]3N=C(c4ccccc4)c4cccc(F)c4NC3=O)cnn2C2CCN(C)CC2)c(F)c1 [Example 59, 5-(4-Ethyl-2-fluorophenyl)-1-(1-methylpiperidin-4-yl)-N-[(3S)-9-fluoro-2-oxo-5-phenyl-1,3-dihydro-1,4-benzodiazepin-3-yl]pyrazole-4-carboxamide], which EC50 [1] is on record?
Its EC50 is 0.107 µM.

And the CC50 [2]?
Its CC50 is 15.2 µM.
